Results from patent publication US20090176696A1, “Methods And Compositions For Modulating An Immune Response” (priority 2006, published 2009).

Assays:
[1] = tested on: Bone marrow-derived dendritic cells (BMDCs); assay: Cytokine production (ELISA) by BMDCs pre-treated with TCT, then stimulated with TLR agonists; format: cell-based, BALB/c mice
[2] = tested on: Experimental autoimmune encephalomyelitis (EAE); assay: Experimental autoimmune encephalomyelitis (EAE) induced with MOG peptide 35-55 in CFA; format: in vivo, C57BL/6 mice
Procedure: EAE was induced in C57BL/6 mice by subcutaneous immunisation with 150 μg MOG peptide 35-55 emulsified in CFA supplemented with 5 mg/ml of killed Mycobacterium tuberculosis. Mice were injected intraperitoneally (i.p) with 500 ng of pertussis toxin (PT) on days 0 and 2. Mice were injected with either PBS or TCT (10 μg/mouse) s.c in the flank on day 1 post EAE induction and every 3-4 days thereafter (FIG. 15). Mice were observed daily for signs of clinical disease. Disease severity was recorded as follows: grade 0, normal; grade 1, limp tail; grade 2, wobbly gait; grade 3, hind limb weakness; grade 4, hind limb paralysis and grade 5, tetraparalysis/death.

murine NOD1 = biological target: T1, murine NOD1 (Mus musculus, UniProt Q8BHB0); settings: cited from earlier work
T1 sequence (Q8BHB0 1-953): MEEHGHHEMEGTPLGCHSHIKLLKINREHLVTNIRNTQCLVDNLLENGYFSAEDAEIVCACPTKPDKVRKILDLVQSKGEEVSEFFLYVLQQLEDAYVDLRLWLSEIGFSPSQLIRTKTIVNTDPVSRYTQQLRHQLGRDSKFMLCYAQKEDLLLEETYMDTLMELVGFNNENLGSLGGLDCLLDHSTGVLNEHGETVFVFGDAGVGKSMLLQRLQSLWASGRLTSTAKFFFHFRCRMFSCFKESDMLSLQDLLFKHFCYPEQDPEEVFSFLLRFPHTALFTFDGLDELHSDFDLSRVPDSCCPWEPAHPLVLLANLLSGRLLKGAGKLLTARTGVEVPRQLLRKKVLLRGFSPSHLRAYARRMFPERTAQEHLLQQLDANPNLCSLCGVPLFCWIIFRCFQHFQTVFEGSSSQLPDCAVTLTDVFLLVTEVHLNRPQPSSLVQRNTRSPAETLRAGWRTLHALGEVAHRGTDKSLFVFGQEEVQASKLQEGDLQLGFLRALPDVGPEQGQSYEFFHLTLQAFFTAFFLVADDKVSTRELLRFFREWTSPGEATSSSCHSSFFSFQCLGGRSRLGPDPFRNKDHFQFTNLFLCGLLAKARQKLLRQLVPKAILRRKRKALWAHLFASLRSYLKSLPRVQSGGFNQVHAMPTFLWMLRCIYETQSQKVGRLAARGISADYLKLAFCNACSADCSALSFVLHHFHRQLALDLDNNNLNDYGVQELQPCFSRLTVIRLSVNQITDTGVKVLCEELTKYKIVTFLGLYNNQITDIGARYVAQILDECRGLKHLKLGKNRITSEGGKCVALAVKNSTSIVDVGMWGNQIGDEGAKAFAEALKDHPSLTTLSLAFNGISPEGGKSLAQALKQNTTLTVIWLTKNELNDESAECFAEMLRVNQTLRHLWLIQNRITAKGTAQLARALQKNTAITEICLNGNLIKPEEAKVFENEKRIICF

Bone marrow-derived DCs = assay: Surface expression of MHC Class II and costimulatory molecules on DCs by immunofluorescence analysis; format: cell-based, BALB/c mice
Procedure: Bone marrow-derived DCs from BALB/c mice were cultured for 6 hours with (i) TCT (10 μg/ml) or medium alone, then stimulated with B. pertussis LPS at (ii) 10 ng/ml and (iii) 100 ng/ml for a further 12 hours and analysed for surface expression of MHC Class II and costimulatory molecules by immunofluorescence analysis with Abs specific for MHC Class II (a), CD86 (b), and ICAM-1 (c). (FIG. 5).

[3] = tested on: KLH-specific T cell and antibody responses; assay: TCT injection 6 hours before immunisation with KLH and E. coli heat labile enterotoxin (LT); ex vivo lymph node responses and antibody titres; format: in vivo, BALB/c mice
Procedure: Groups of 5 BALB/c mice were injected subcutaneously into the flank with PBS or TCT (10 μg/mouse) and then immunised with KLH (20 μg/mouse) or KLH with E. coli heat labile enterotoxin (LT) (100 ng/mouse) 6 hours later. The T cell response was assessed 14 days later from local inguinal lymph node cells stimulated with antigen ex vivo.
Lymph node (FIG. 10) cell suspensions were cultured in the presence of various concentrations of KLH (2, 10, 50 μg/ml) and PMA/CD3 or medium were used as positive and negative controls respectively. Supernatants were collected 72 hours later. Concentrations of IFN-gamma, IL-10, IL-4 and IL-5 in supernatants were evaluated by ELISA (FIG. 10). KLH-specific antibody titres were also determined by ELISA (FIG. 11). Results are the mean responses (±SD) for 5 mice assessed individually in triplicate.

[4] = TCT 10 μg/mouse 6 hours before KLH and LT
[5] = TCT 10 μg/mouse 6 hours before KLH with LT

## CC(=O)NC1C(OC2C3COC(O3)C(NC(C)=O)C2OC(C)C(=O)NC(C)C(=O)NC(CCC(=O)NC(CCCC(N)C(=O)NC(C)C(=O)O)C(=O)O)C(=O)O)OC(CO)C(O)C1O (stereo not drawn) [TCT, N-acetylglucosaminyl-1,6-anhydro-N-acetylmuramylalanyl-γ-glutamyldiaminopimelylalanine]
[1]
  IL-10 production by dendritic cells in synergy with the TLR4 agonist MPL: enhances
[2]; TCT 10 μg/mouse s.c. day 1 and every 3-4 days, untreated mice 12 days
  first clinical signs of disease post induction: 18 days
[2]; TCT 10 μg/mouse s.c., versus untreated control mice
  severity of disease: lower than that observed in the untreated control mice
Murine NOD1
  NOD1 detection of TCT: did so effectively
Bone marrow-derived DCs; 6 hours TCT pre-treatment
  B. pertussis LPS induced expression of the other costimulatory molecules (CD86, ICAM-1): did not modulate
Bone marrow-derived DCs; LPS 10 or 100 ng/ml, 6 hours TCT pre-treatment
  MHC Class II expression induced with B. pertussis LPS: reduced
Bone marrow-derived DCs; TCT (10 μg/ml) alone
  MHC Class II expression on DCs: did not influence
  co-stimulatory molecule expression on DCs: did not influence
[3]; [4]
  antigen-specific IFN-gamma production by lymph node cells: significantly impaired
  antigen-specific IL-4 production by lymph node cells: significantly impaired
[3]; [5]
  KLH-specific IL-5 production, lymph node cells: reduction
  KLH-specific IL-10 production, lymph node cells: reduction
[3]; TCT 6 hours before LT and KLH
  antigen-specific IgG1 titres: no effect
  antigen-specific IgG2a titres: no effect
  total KLH-specific IgG production: no effect
